Experimental data published in ChEMBL document CHEMBL1201862, “PubChem BioAssay data set” (2004).
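In this assay, cells in 96-well plates receive the compound at five concentrations for 48 hours. Endpoints are linearly interpolated between the surrounding concentrations. GI50 is the concentration that inhibits growth by half.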 Active and inactive are the calls of the source. Rule as the data show it: active = GI50 up to about 1.1 µM and inactive = higher.

Key:
Assay in all cases: inhibition of tumour cell growth, NCI panel, 48 h
SK-OV-3 = system: SK-OV-3
SNB-19 = system: SNB-19
U-251 = system: U-251
SN12C = system: SN12C
A549 = system: A549
MOLT-4 = system: MOLT-4
NCI-H23 = system: NCI-H23
ACHN = system: ACHN
SF-539 = system: SF-539
K562 = system: K562
EKVX = system: EKVX
DMS-114 = system: DMS-114
SNB-78 = system: SNB-78
RXF 393 = system: RXF 393
SR = system: SR
LOX IMVI = system: LOX IMVI
CCRF-CEM = system: CCRF-CEM
HCT-116 = system: HCT-116
HCT-15 = system: HCT-15
UACC-257 = system: UACC-257
NCI-H460 = system: NCI-H460
HL-60 = system: HL-60
HOP-62 = system: HOP-62
SF-295 = system: SF-295
SK-MEL-28 = system: SK-MEL-28
COLO 205 = system: COLO 205
786-0 = system: 786-0
M19-MEL = system: M19-MEL
SW-620 = system: SW-620
UACC-62 = system: UACC-62
HT-29 = system: HT-29
IGROV-1 = system: IGROV-1
DLD-1 = system: DLD-1
OVCAR-8 = system: OVCAR-8
SF-268 = system: SF-268
KM-20L2 = system: KM-20L2
OVCAR-5 = system: OVCAR-5
UO-31 = system: UO-31
SK-MEL-5 = system: SK-MEL-5
M14 = system: M14
HCC 2998 = system: HCC 2998
XF498 = system: XF498
RPMI-8226 = system: RPMI-8226
OVCAR-3 = system: OVCAR-3
OVCAR-4 = system: OVCAR-4
TK-10 = system: TK-10
SNB-75 = system: SNB-75
KM12 = system: KM12
LXFL 529 = system: LXFL 529
DMS-273 = system: DMS-273
NCI-H226 = system: NCI-H226
HOP-18 = system: HOP-18
Malme-3M = system: Malme-3M
HOP-92 = system: HOP-92
CAKI-1 = system: CAKI-1
NCI-H522 = system: NCI-H522
A498 = system: A498
SK-MEL-2 = system: SK-MEL-2

CC1(C)OC2C(CO)OC(N/C(=N/C#N)Oc3ccccc3)C2O1 (stereo not drawn)
GI50 (SK-OV-3): > 100 µM (inactive)
GI50 (SNB-19): > 100 µM (inactive)
GI50 (U-251): > 100 µM (inactive)
GI50 (SN12C): > 100 µM (inactive)
GI50 (A549): > 100 µM (inactive)
GI50 (MOLT-4): > 100 µM (inactive)
GI50 (NCI-H23): > 100 µM (inactive)
GI50 (ACHN): > 100 µM (inactive)
GI50 (SF-539): > 100 µM (inactive)
GI50 (K562): > 100 µM (inactive)
GI50 (EKVX): > 100 µM (inactive)
GI50 (DMS-114): > 100 µM (inactive)
GI50 (SNB-78): > 100 µM (inactive)
GI50 (RXF 393): > 100 µM (inactive)
GI50 (SR): > 100 µM (inactive)
GI50 (LOX IMVI): > 100 µM (inactive)
GI50 (CCRF-CEM): > 100 µM (inactive)
GI50 (HCT-116): > 100 µM (inactive)
GI50 (HCT-15): > 100 µM
GI50 (UACC-257): > 100 µM (inactive)
GI50 (NCI-H460): > 100 µM (inactive)
GI50 (HL-60): > 100 µM (inactive)
GI50 (HOP-62): > 100 µM (inactive)
GI50 (SF-295): > 100 µM (inactive)
GI50 (SK-MEL-28): > 100 µM (inactive)
GI50 (COLO 205): > 100 µM (inactive)
GI50 (786-0): > 10 µM (inactive)
GI50 (M19-MEL): > 100 µM (inactive)
GI50 (SW-620): > 100 µM (inactive)
GI50 (UACC-62): > 100 µM (inactive)
GI50 (HT-29): > 100 µM (inactive)
GI50 (IGROV-1): > 100 µM (inactive)
GI50 (DLD-1): > 100 µM (inactive)
GI50 (OVCAR-8): > 100 µM (inactive)
GI50 (SF-268): > 100 µM (inactive)
GI50 (KM-20L2): > 100 µM (inactive)
GI50 (OVCAR-5): > 100 µM (inactive)
GI50 (UO-31): > 100 µM (inactive)
GI50 (SK-MEL-5): > 100 µM (inactive)
GI50 (M14): > 100 µM (inactive)
GI50 (HCC 2998): > 100 µM (inactive)
GI50 (XF498): > 100 µM (inactive)
GI50 (RPMI-8226): > 100 µM (inactive)
GI50 (OVCAR-3): > 100 µM (inactive)
GI50 (OVCAR-4): > 100 µM (inactive)
GI50 (TK-10): > 100 µM (inactive)
GI50 (SNB-75): 75.9 µM (inactive)
GI50 (KM12): > 100 µM (inactive)
GI50 (LXFL 529): > 100 µM (inactive)
GI50 (DMS-273): > 100 µM (inactive)
GI50 (NCI-H226): > 100 µM (inactive)

CN(CC(=O)O)S(=O)(=O)c1ccc(Cl)cc1
GI50 (SK-OV-3): > 100 µM (inactive)
GI50 (SNB-19): > 100 µM (inactive)
GI50 (U-251): > 100 µM (inactive)
GI50 (SN12C): > 100 µM (inactive)
GI50 (A549): > 100 µM (inactive)
GI50 (MOLT-4): > 100 µM (inactive)
GI50 (HOP-18): > 100 µM (inactive)
GI50 (NCI-H23): > 100 µM (inactive)
GI50 (ACHN): > 100 µM (inactive)
GI50 (SF-539): > 100 µM (inactive)
GI50 (K562): > 100 µM (inactive)
GI50 (Malme-3M): > 100 µM (inactive)
GI50 (EKVX): > 100 µM (inactive)
GI50 (RXF 393): > 100 µM (inactive)
GI50 (LOX IMVI): > 100 µM (inactive)
GI50 (HOP-92): > 100 µM (inactive)
GI50 (CCRF-CEM): > 100 µM (inactive)
GI50 (HCT-15): > 100 µM
GI50 (CAKI-1): > 100 µM (inactive)
GI50 (UACC-257): > 100 µM (inactive)
GI50 (NCI-H460): > 100 µM (inactive)
GI50 (HL-60): > 100 µM (inactive)
GI50 (NCI-H522): > 100 µM (inactive)
GI50 (SF-295): > 100 µM (inactive)
GI50 (A498): > 100 µM (inactive)
GI50 (SK-MEL-28): > 100 µM (inactive)
GI50 (COLO 205): > 100 µM (inactive)
GI50 (786-0): > 100 µM (inactive)
GI50 (M19-MEL): > 100 µM (inactive)
GI50 (SW-620): > 100 µM (inactive)
GI50 (UACC-62): > 100 µM (inactive)
GI50 (SK-MEL-2): > 100 µM (inactive)
GI50 (HT-29): > 100 µM (inactive)
GI50 (IGROV-1): > 100 µM (inactive)
GI50 (DLD-1): > 100 µM (inactive)
GI50 (OVCAR-8): > 100 µM (inactive)
GI50 (SF-268): > 100 µM (inactive)
GI50 (KM-20L2): > 100 µM (inactive)
GI50 (OVCAR-5): > 100 µM (inactive)
GI50 (UO-31): > 100 µM (inactive)
GI50 (SK-MEL-5): > 100 µM (inactive)
GI50 (M14): > 100 µM (inactive)
GI50 (HCC 2998): > 100 µM (inactive)
GI50 (XF498): > 100 µM (inactive)
GI50 (RPMI-8226): > 100 µM (inactive)
GI50 (OVCAR-3): > 100 µM (inactive)
GI50 (OVCAR-4): > 100 µM (inactive)
GI50 (TK-10): > 100 µM (inactive)
GI50 (SNB-75): > 100 µM (inactive)
GI50 (KM12): > 100 µM (inactive)
GI50 (LXFL 529): > 100 µM (inactive)
GI50 (DMS-273): > 100 µM (inactive)
GI50 (NCI-H226): > 100 µM (inactive)

CC[n+]1c(-c2ccccc2)c2cc(N)ccc2c2ccc(N)cc21
GI50 (SN12C): 2.51 µM (inactive)
GI50 (A549): 9.57 µM (inactive)
GI50 (MOLT-4): 1.64 µM (inactive)
GI50 (HOP-18): 3.59 µM (inactive)
GI50 (NCI-H23): 1.31 µM (inactive)
GI50 (ACHN): 22.1 µM (inactive)
GI50 (SF-539): 1.48 µM (inactive)
GI50 (K562): 2.35 µM (inactive)
GI50 (Malme-3M): 2.24 µM (inactive)
GI50 (DMS-114): 1.29 µM (inactive)
GI50 (HCT-116): 2.79 µM (inactive)
GI50 (CAKI-1): 11.8 µM (inactive)
GI50 (UACC-257): 2.65 µM (inactive)
GI50 (NCI-H460): 3.3 µM (inactive)
GI50 (HL-60): 4.3 µM (inactive)
GI50 (SF-295): 3 µM (inactive)
GI50 (COLO 205): 2.12 µM (inactive)
GI50 (M19-MEL): 1.88 µM (inactive)
GI50 (SW-620): 2.3 µM (inactive)
GI50 (UACC-62): 1.52 µM (inactive)
GI50 (IGROV-1): 1.42 µM (inactive)
GI50 (KM-20L2): 3.91 µM (inactive)
GI50 (OVCAR-5): 29.6 µM (inactive)
GI50 (HCC 2998): 2.67 µM (inactive)
GI50 (OVCAR-3): 3.06 µM (inactive)
GI50 (OVCAR-4): 6.68 µM (inactive)
GI50 (KM12): 2.95 µM (inactive)
GI50 (LXFL 529): 0.668 µM (active)
GI50 (DMS-273): 0.481 µM (active)
